Measurements taken from the NIST ThermoML archive (doi:10.1016/j.fluid.2010.10.003).

Experiments:
[1] = 298.15 K, 101.33 kPa, Liquid; for viscosity: Capillary tube (Ostwald / Ubbelohde) method; for mass density: Vibrating tube method
[2] = refractive index (Na D-line) (dimensionless); details: 298.15 K; 101.33 kPa; Liquid; Standard Abbe refractometry
[3] = refractive index (Na D-line) (dimensionless); xn = mol fraction of the nth substance listed; details: 298.15 K, 101 kPa, Liquid, Standard Abbe refractometry
[4] = xn = mol fraction of the nth substance listed; details: 298.15 K, 101 kPa, Liquid; for viscosity: Capillary tube (Ostwald / Ubbelohde) method; for mass density: Vibrating tube method

CCCC[n+]1ccn(C)c1.O=S(=O)([N-]S(=O)(=O)C(F)(F)F)C(F)(F)F
Details	mass density [kg/m3]	refractive index	viscosity [mPa·s]
[1]	1436.58	–	50.68
[2]	–	1.42692	–

CCCC[n+]1ccn(C)c1.O=S(=O)([N-]S(=O)(=O)C(F)(F)F)C(F)(F)F + CC(C)O
Details	mass density, [4] [kg/m3]	refractive index, [3]	viscosity, [4] [mPa·s]
x2 = 0.0515	1427.23	1.42621	45.44
x2 = 0.0962	1418.52	1.42549	41.2
x2 = 0.1921	1397.79	1.42385	33.45
x2 = 0.3213	1363.98	1.42124	24.5
x2 = 0.3896	1342.5	1.41962	20.46
x2 = 0.4869	1306.05	1.41685	15.84
x2 = 0.5173	1292.91	1.41578	14.67
x2 = 0.6074	1247.91	1.4124	11.22
x2 = 0.6943	1192.86	1.40818	8.545
x2 = 0.7996	1102.82	1.40129	5.859
x2 = 0.8995	978.52	1.39152	3.898

CC(=O)OC(C)C [1-methylethyl ethanoate]
Details	mass density [kg/m3]	refractive index	viscosity [mPa·s]
[1]	866.21	–	0.481
[2]	–	1.3748	–

CC(=O)OC(C)C [1-methylethyl ethanoate] + CCCC[n+]1ccn(C)c1.O=S(=O)([N-]S(=O)(=O)C(F)(F)F)C(F)(F)F
Details	mass density, [4] [kg/m3]	refractive index, [3]	viscosity, [4] [mPa·s]
x1 = 0.0514	1425.08	1.42609	44.31
x1 = 0.1096	1411.17	1.42501	38.56
x1 = 0.1554	1399.42	1.42412	33.87
x1 = 0.1972	1388.1	1.42326	30.34
x1 = 0.2961	1358.2	1.42092	22.58
x1 = 0.4241	1312.34	1.41733	14.46
x1 = 0.5168	1272.49	1.4142	10.07
x1 = 0.5998	1230.54	1.4107	6.918
x1 = 0.7017	1168.62	1.40538	4.356
x1 = 0.7981	1095.44	1.39882	2.363
x1 = 0.8918	1005.35	1.39016	1.41

CC(C)O [propan-2-ol]
Details	mass density [kg/m3]	refractive index	viscosity [mPa·s]
[1]	780.88	–	2.073
[2]	–	1.37502	–
